Data reported in article PMC12735945, “Synthetic Linear Lipopeptides and Lipopeptoids Induce Apoptosis and Oxidative Stress: In Vitro Cytotoxicity and SAR Evaluation Against Cancer Cell Lines” (Pharmaceuticals, 2025).
Like-named read-outs stand apart in the source and are kept apart here. Starred links: 1 amine or outer side, 2 acyl side, 3 side chain; linkers in the order of their positions; H or OH if unused. Positions of bridges follow the written chain, without caps; N, C: chain ends. Non-standard residues stand in square brackets, D forms with d. Residues, ends and D or L forms follow the SMILES beside them. *: point of attachment. X1 = CC(C)CCCCCCCCC[C@H](CC(=O)[*:1])O[*:2]; Heptadecanoyl = CCCCCCCCCCCCCCCCC(=O)*; Stearoyl = CCCCCCCCCCCCCCCCCC(=O)*; Myristoyl = CCCCCCCCCCCCCC(=O)*; Boc = CC(C)(C)OC(=O)*; Nlys = NCCCCNCC(=O)O

How the values were obtained:
[1] = test system: HeLa (human cervical adenocarcinoma) cells; type: cell-based; conditions: 72 h
Description: (§1) The MTT and CV assays were employed for initial cytotoxicity screening and determination of half-maximal inhibitory concentrations (IC50), as described previously. Cells were seeded in 96-well plates and incubated for 24 h prior to treatment. B16F10, HT-29, HeLa, and NIH3T3 cells were seeded at a density of 2000 cells per well, while PC3 cells were seeded at 6000 cells per well due to their slower proliferation rate. For fast screening, cancer cells were treated with two concentrations of each LLP (0.1 µM and 10 µM) for 72 h in triplicate, with four replicates in each experiment. […] Digitonin was used as a positive control in all assays. Following treatment, absorbance was measured using a microplate reader (SpectraMax, Molecular Devices, San Jose, CA, USA) at 540 nm, with a reference wavelength of 670 nm. Cell viability was calculated as a percentage of untreated control wells.

[2] = test system: HT-29 (human colon adenocarcinoma) cells; type: cell-based; conditions: 72 h
Description: as §1

[3] = test system: PC3 (human prostate cancer) cells; type: cell-based; conditions: 72 h
Description: as §1

[4] = test system: B16F10 (mouse skin melanoma) cells; type: cell-based; conditions: 72 h
Description: as §1

[5] = test system: HT-29 (human colon adenocarcinoma) cells; type: cell-based; conditions: 72 h; remark: listed apart in the source
Description: as §1

[6] = test system: HeLa (human cervical adenocarcinoma) cells; type: cell-based; conditions: 72 h; remark: listed apart in the source
Description: as §1

[7] = test system: PC3 (human prostate cancer) cells; type: cell-based; conditions: 72 h; remark: listed apart in the source
Description: as §1

[8] = test system: B16F10 (mouse skin melanoma) cells; type: cell-based; conditions: 72 h; remark: listed apart in the source
Description: as §1

B16F10 cells [9] = assay: Cell cycle analysis (DAPI staining, flow cytometry); type: cell-based, mouse; conditions: 72 h
Description: B16F10 cells were seeded overnight in 6-well plates at a density of 1 × 10^5 cells per well and treated for 72 h with selected active LLPs either at the IC50 or 2 × IC50 concentration. Following treatment, both floating and adherent cells were collected, washed with PBS, and fixed in 70% ethanol at 4 °C overnight. Fixed cells were stained with DAPI staining solution (1 µg/mL) for 30 min at 37 °C in the dark, followed by PBS washing to remove excess dye. Flow cytometric analysis was performed using a FACSAria III instrument (BD Biosciences, Eysins, Switzerland). Histograms of cell counts versus fluorescence intensity were generated and cell cycle distribution was determined based on mean fluorescence intensity values.

B16F10 cells [10] = assay: Apoptosis by Annexin V-FITC/PI staining; type: cell-based, mouse; conditions: B16F10, IC50 concentration, 72 h
Description: B16F10 melanoma cells were seeded in 6-well plates at a density of 1 × 10^5 cells/well and incubated overnight to allow for cell adherence. […] Following treatment, both floating and adherent cells were harvested and washed with PBS. The cells were then resuspended in 100 μL of Annexin V binding buffer containing 5 μL of Annexin V-FITC and 2 μL of PI per sample. Staining was performed for 15 min at 37 °C in the dark. After staining, cells were washed with PBS and analyzed using a BD FACSAria III flow cytometer (BD Biosciences) to quantify the percentages of apoptotic cells.

caspases in B16F10 cells = assay: ApoStat caspase detection assay; type: cell-based, mouse; conditions: B16F10, IC50 concentration, 72 h
Description: B16F10 cells were seeded in 6-well plates at a density of 1 × 10^5 cells per well and treated for 72 h with IC50 concentrations of selected active LLPs. Post-treatment, cells were harvested and washed with PBS. Cells were then stained with 100 μL of working ApoStat solution, prepared by diluting ApoStat reagent (FITC-VAD-FMK) in PBS containing 5% FCS (99 μL of PBS 5% FCS + 1 μL ApoStat per sample). The staining was performed for 30 min at 37 °C in the dark. Following incubation, cells were washed to remove unbound reagents and analyzed by flow cytometry using a FACSAria III system (BD Biosciences). The fluorescence intensity of FITC was measured to assess caspase production, with increased fluorescence indicating elevated caspase activity.

B16F10 cells [11] = assay: CFSE-based cell proliferation assay; parameters: species or system mouse; conditions: B16F10, IC50 concentration, 72 h
Description: B16F10 cells were stained with 1 µM carboxyfluorescein succinimidyl ester (CFSE) for 10 min at 37 °C, followed by treatment with compounds 17, 53, or 57 at IC50 concentrations for 72 h. After incubation, cells were washed, trypsinized, and analyzed by flow cytometry to assess cell division based on CFSE fluorescence intensity.

B16F10 cells [12] = assay: ROS/RNS production (DHR staining, flow cytometry); type: cell-based, mouse; conditions: B16F10, IC50 concentration, 72 h, versus untreated control
Description: (§2) To assess intracellular ROS/RNS levels, B16F10 cells were first stained with 1 µM DHR for 10 min at 37 °C. Following staining, cells were treated with LLPs 17, 53 or 58 at their IC50 concentrations for 72 h. After treatment, cells were trypsinized, washed with PBS, and analyzed by flow cytometry to quantify DHR fluorescence, indicative of ROS/RNS production. For NO detection, B16F10 cells were treated under identical conditions using the same LLP concentrations. After 72 h, cells were incubated with 5 µM DAF-FM diacetate in RPMI 1640 supplemented with 10% FCS for 1 h at 37 °C. The stain was then deactivated by incubation for 15 min with a serum-free medium. Finally, cells were detached, washed with PBS, and subjected to flow cytometric analysis to assess intracellular NO levels.

B16F10 cells [13] = assay: NO production (DAF-FM staining, flow cytometry); type: cell-based, mouse; conditions: B16F10, IC50 concentration, 72 h
Description: as §2

[14] = test system: NIH3T3 mouse embryonic fibroblasts; type: cell-based; conditions: 72 h
Description: as §1

[15] = test system: B16F10 (mouse skin melanoma) cells; conditions: CV assay, 72 h; mean ± SD; cited from earlier work
Description: Table 1 IC50 value (µM) for cytotoxic LLPs (72 h, CV assay). Data represent mean ± SD from three independent biological experiments, each performed with eight technical replicates per concentration. | column: B16F10

[16] = test system: HeLa (human cervical adenocarcinoma) cells; conditions: CV assay, 72 h; mean ± SD; cited from earlier work
Description: Table 1 IC50 value (µM) for cytotoxic LLPs (72 h, CV assay). Data represent mean ± SD from three independent biological experiments, each performed with eight technical replicates per concentration. | column: HeLa

[17] = MTT assay, mean ± SD of three independent biological experiments, read-out: IC50 B16F10
[18] = MTT assay, mean ± SD of three independent biological experiments, read-out: IC50 HeLa
[19] = B16F10, double IC50 concentration

Row | Compound | IC50 [1] [µM] | IC50 [2] [µM] | IC50 [5] [µM] | IC50 [6] [µM] | IC50 [8] [µM] | IC50 [4] [µM] | IC50 [6, 18] [µM] | cells in the sub-G1 phase (B16F10 cells [9]; B16F10, IC50 concentration) | cells in the sub-G1 phase (B16F10 cells [9]; [19]) | proportion of apoptotic cells (B16F10 cells [10]) | caspase activation (ApoStat fluorescence) (caspases in B16F10 cells) | cell division profile (CFSE) (B16F10 cells [11]) | ROS/RNS production (B16F10 cells [12]) | NO production (B16F10 cells [13]) | further results
1 | CCCCCCCCCCCCCCCC(=O)N(CCCCCCNC(=O)OC(C)(C)C)CC(=O)NCC(=O)N(CCCCCCNC(=O)OC(C)(C)C)CC(=O)NCC(=O)OC [Compound 3] | 6.6 ± 0.3 | 6.2 ± 0.2 | 6.5 ± 0.6 | 6.4 ± 0.9 |  |  |  |  |  |  |  |  |  |  | IC50 [3]: 6.1 ± 0.2 µM; IC50 [4, 17]: 6.1 ± 0.1 µM; IC50 [7]: 5.9 ± 0.1 µM
2 | CCCCCCCCCCCCCC(=O)N(CCNC(=O)OC(C)(C)C)CC(=O)NCC(=O)N(CCNC(=O)OC(C)(C)C)CC(=O)NCC(=O)OC [Compound 17] |  | 4.1 ± 0.8 | 4 ± 0.6 |  | 5.6 ± 0.4 | 5.7 ± 0.3 | 5.6 ± 0.3 | approximately 20% | 50–60% | approximately 15% | gradual enhancement in the fluorescence signal | notably reduced the proportion of cells undergoing successive divisions | moderate ROS/RNS generation | increased NO production | IC50 [3]: 4.1 ± 0.6 µM; IC50 [7]: 4 ± 0.3 µM
3 | CCCCCCCCCCCCCCCCC(=O)N(CCCCNC(=O)OC(C)(C)C)CC(=O)NCC(=O)N(CCCCNC(=O)OC(C)(C)C)CC(=O)NCC(=O)OC [Compound 45] (Heptadecanoyl-[Nlys](Boc)G[Nlys](Boc)G-OMe) | 7.9 ± 0.6 | 7.8 ± 0.9 | 7.5 ± 0.1 | 8 ± 0.5 |  |  |  |  |  |  |  |  |  |  | IC50 [4, 17]: 8 ± 0.2 µM
4 | CCCCCCCCCCCCCCCCCC(=O)N(CCCCNC(=O)OC(C)(C)C)CC(=O)NCC(=O)N(CCCCNC(=O)OC(C)(C)C)CC(=O)NCC(=O)OC [Compound 46] (Stearoyl-[Nlys](Boc)G[Nlys](Boc)G-OMe) | 8 ± 0.4 |  |  | 8.2 ± 0.3 | 8 ± 0.9 | 8.1 ± 0.1 |  |  |  |  |  |  |  |  | 
5 | CCCCCCCCCCCCCC(=O)N(CCCCNC(=O)OC(C)(C)C)CC(=O)NCC(=O)N(CCCCNC(=O)OC(C)(C)C)CC(=O)NCC(=O)OC [Compound 47] (Myristoyl-[Nlys](Boc)G[Nlys](Boc)G-OMe) |  |  |  |  |  |  | 12.3 ± 0.8 |  |  |  |  |  |  |  | 
6 | CCCCCCCCCCCCCCCC(=O)N(CCc1ccc(O)cc1)CC(=O)NCC(=O)OC [Compound 53] |  |  |  |  | 7.7 ± 0.3 | 8 ± 0.2 |  | approximately 20% | 50–60% | approximately 15% | gradual enhancement in the fluorescence signal | notably reduced the proportion of cells undergoing successive divisions | only slightly enhanced | only a slight increase | 
7 | CCCCCCCCCCCCCCCC(=O)N(CCCCN=[N+]=[N-])CC(=O)NCC(=O)N(CCCCN=[N+]=[N-])CC(=O)NCC(=O)OC [Compound 55] |  |  |  |  |  |  | 15.4 ± 0.4 |  |  |  |  |  |  |  | 
8 | CCCCCCCCCCCCCCCCCCC(=O)N(CCCCN=[N+]=[N-])CC(=O)NCC(=O)N(CCCCN=[N+]=[N-])CC(=O)NCC(=O)OC [Compound 58] | 7.7 ± 0.2 | 9.1 ± 0.2 | 8.7 ± 0.3 | 7.8 ± 0.3 | 7.4 ± 0.1 | 7.5 ± 0.2 |  | approximately 20% | 50–60% | approximately 15% | clearer caspase activation was detected | notably reduced the proportion of cells undergoing successive divisions | marked increase | increased NO production | 
9 | CCCCCCCCCCCCCCCCCCCC(=O)N(CCCCN=[N+]=[N-])CC(=O)NCC(=O)N(CCCCN=[N+]=[N-])CC(=O)NCC(=O)OC [Compound 59] |  |  |  |  | 11.1 ± 1.2 | 11.5 ± 1.3 |  |  |  |  |  |  |  |  | 
10 | CC(C)CCCCCCCCC[C@@H]1CC(=O)N[C@@H](CCC(=O)O)C(=O)N[C@@H](CC(C)C)C(=O)N[C@H](CC(C)C)C(=O)N[C@@H](C(C)C)C(=O)N[C@@H](CC(=O)O)C(=O)N[C@H](CC(C)C)C(=O)N[C@@H](CC(C)C)C(=O)O1 [Surfactin, surfactin, reference compound] (EL[dL]VD[dL]L; linker N-C via X1 (inferred)) |  |  |  | 64.9 ± 0.8 |  | 50.3 ± 0.6 |  |  |  |  |  |  |  |  | NIH3T3 cell viability [14]: approximately 25%; IC50 [15]: 40.4 ± 0.3 µM; IC50 [16]: 76.2 ± 1.6 µM
